Data on two compounds can be found in patent publication US9764059B2, “Chlorhexidine gluconate containing solvent adhesive” (Avery Dennison Corporation, priority 2011, dated 2017).

The nature of one data set: Solubility. In kind it is physicochemical.
The conditions of data set [1]: cited from earlier work.

`N=C(NCCCCCCNC(=N)NC(=N)Nc1ccc(Cl)cc1)NC(=N)Nc1ccc(Cl)cc1` [Chlorhexidine base]: the solubility in water result in “Solubility” is “low solubility in water”.

On to `N=C(NCCCCCCNC(=N)NC(=N)Nc1ccc(Cl)cc1)NC(=N)Nc1ccc(Cl)cc1.O=C(O)[C@H](O)[C@@H](O)[C@H](O)[C@H](O)CO.O=C(O)[C@H](O)[C@@H](O)[C@H](O)[C@H](O)CO` [chlorhexidine gluconate], for which the solubility in solvents result in data set [1] was “only soluble in methanol and acetone”.
